One series has as its system FAK. The note with it: xenograft model.
Series [1] has as its system Huh7 cell lines. The experiment in a line: Antitumor response in vivo, Huh7 xenograft. On the set-up: species or system mice. The note with it: 5 mg/kg/day intraperitoneal. How it is done: All animal experiments were conducted according to the guidelines approved by the Institutional Animal Care and Use Committees of the College of Medicine, National Taiwan University and National Taiwan Normal University. The study was approved by the Animal Care and Use Committees of the College of Medicine, National Taiwan University and National Taiwan Normal University. Male NOD/SCID mice (4-6 weeks old) (obtained from BioLASCO Taiwan Co., Ltd) were housed into individually-ventilated cages with free access to food and drinking water. […] The tumor volume was calculated by the following equation: tumor volume(mm^3)=(length [mm])×(width [mm])^2×0.5.

The subject of another series is p-FAK (Tyr397). The experiment in a line: Immunohistochemistry of excised xenograft tumors. Format: in vivo. The following applies: HCC xenograft mice, CA 5 mg/kg/day. The source says: (§1) Tumor samples obtained from experiment 4-1 were fixed in 10% […], embedded in paraffin, and sectioned. The tissue sections were then subjected to immunohistochemical staining with the Novolink Polymer Detection System (Leica Biosystems). The sections were stained for p-VEGFR2 (Tyr951, Cell Signaling Technology), Ki-67 and p-FAK (Tyr397) (Santa Cruz Biotechnology), and the nuclei were counterstained with hematoxylin.

In a further series the test system is p-VEGFR2 (Tyr951). Description: Immunohistochemistry of excised xenograft tumors. The class given is in vivo. The following applies: HCC xenograft mice, CA 5 mg/kg/day.
Excerpt: as §1

The next series concerns VEGFR2. The experiment in a line: Immunoprecipitation and Western blot analysis, Huh7 cell lines. The class given is cell-based. The following applies: Huh7, 15 mins treatment, vs control. How it is done: The lysates were then sonicated and centrifuged. The supernatant was kept and incubated with anti-VEGFR1 antibody, anti-VEGFR2 antibody, and anti-VEGFR3 antibody (Santa Cruz Biotechnology, Inc.) overnight at 4° C. The immune-complexes were washed and eluted, and then analyzed by Western blotting.
Background: In western blotting, separated proteins are transferred to a membrane and probed.

Series [2] deals with Huh7 cell lines. Description: G-actin/F-actin activity assay. The class given is cell-based. The following applies: Huh7, 6 hours, vs control. How it is done: Actin activity assay can be conducted by known methods, for example, the method described in Shum et al. (2011). Briefly, Huh7 cell lines were cultured by the method described in Example 2 and treated with 0.1% DMSO (control) or CA for 6 hours and incubated in stabilizing buffer (1% Triton X-100, 1 μg phalloidin, and protease inhibitor cocktail) at room temperature for 5 mins. Cell lysates were collected, followed by centrifugation at 100,000×g at 37° C. for 1 hour. The supernatant was removed and saved as the G-actin fraction. The pellet was washed twice with PBS and dissolved in dissolving buffer solution (1% Triton X-100, 2% SDS, and protease inhibitor cocktail) by sonication, the mixture was put on ice for 1 h, and saved as the F-actin fraction.

A further series relates to cdc42. The experiment in a line: Rho GTPase activity assay (GST pull-down, Western blot), Huh7 cell lines. Format: cell-based. The following applies: Huh7, 6 hours. Here is the method:
Huh7 cell lines were cultured by the method described in Example 2 and treated with 0.1% DMSO (control) or CA for 6 hours and then collected. After the Huh7 cell lines were lysed, the cell lysates (500 μg) were combined with purified GST fusion protein which has conjugated with Rac1, RhoA, or cdc42 binding domain (PAK-PBD for Rac1 and cdc42, Raf-RBD for RhoA) and incubated at 4° C. overnight. The immune-complex was precipitated and then centrifuged at 14,000 rpm for 30 mins. The samples were washed with RIPA buffer solution, boiled with SDS sample buffer solution, and analyzed by Western blot analysis.

Another series concerns FAK (Tyr397). Description: Immunoprecipitation and Western blot analysis, Huh7 cell lines. The class given is cell-based. The following applies: Huh7, 15 mins treatment.
Series [3] concerns Hep3B cell lines. The experiment in a line: Cytotoxicity assay (MTT). Format: cell-based. The following applies: 24 hours. Here is the method: (§2) The HCC cell lines: Huh7, HepG2 and Hep3B were obtained from Japanese Collection of Research Bioresources (National Institute of Health Sciences; Japan, JCRB) and maintained in Dulbecco's Modified Eagle's Medium-High Glucose (Invitrogen) medium with 10% fetal bovine serum (FBS), 2 mM L-glutamine (Invitrogen), and 100 μg/mL penicillin-streptomycin (Invitrogen). Cells were cultured in a humidified atmosphere in 5% CO2 at 37° C. A well-known cytotoxicity assays in the art, for example, the assay described by Wang et al. can be performed to study the cytotoxicity of the pharmaceutical composition provided by the present invention. […] The number of viable cells was determined by MTT assay.

Series [4] relates to HepG2 cell lines. The experiment in a line: Cytotoxicity assay (MTT). The note with it: HepG2, 24 hours. The class given is cell-based. How it is done:
as §2

A short description of a further series: Cytotoxicity assay (MTT). Format: cell-based. The note with it: human, Huh7 cells (HCC cell line), Huh7, 24 hours. How it is done:
as §2

Series [5] deals with Huh7 cell lines. Description: Confocal microscopy analysis of p-FAK (Tyr397) and F-actin. The note with it: Huh7, 6 hour. Format: cell-based. Here is the method:
Huh7 cell lines cultured by the method described in Example 2 were seeded on a 22×22 cover slip and treated with 0.1% DMSO (control) or CA for 6 hour. The cells were washed, fixed, and permeabilized with 0.25% Triton X-100 for 10 mins. Next, the cover slips were incubated with p-FAK (Tyr397) primary antibody overnight, and then stained with Alexa488 (anti-rabbit) and Alexa568-phallodin (20 mU/mL) for 1 hour in darkness. Finally, the samples were counterstained for nuclei with DAPI (10 ng/mL) for 10 mins. The images were captured and analyzed using the Leica TCS SP5 Spectral Confocal System. The actin filament intensity was measured by ImageJ (NIH) and calculated by the following formula described by Bennett et al. (2013): Corrected total cell fluorescence (CTCF)=Integrated Density−(Area of selected cell×Mean fluorescence of background readings).

The next series deals with Src. Description: Immunoprecipitation and Western blot analysis, Huh7 cell lines. Format: cell-based. The note with it: Huh7, 15 mins treatment.
Series [6] relates to Hep3B cell lines. Description: Transwell migration assay. The note with it: 1-16 μM, 16 hours. Format: cell-based. Here is the method: (§3) Then, the cells were seeded into Transwell inserts (8 μm pore; BD Biosciences). The mediums were incubated for 16 hours, and the migrated cells were fixed, stained with crystal violet, and quantified.
(§4) Except for the compound represented by formula (1), the pharmaceutical composition can further comprises at least one known anticancer agent. […] The software was used to estimate the combination index (CI) and Fa (fraction affected by drugs) and to interpret the combined effect of drugs. CI<1, CI=1, and CI>1 respectively indicate synergistic, additive, and antagonistic effects.

The subject of series [7] is Huh7 cell lines. Description: Transwell migration assay. The class given is cell-based. How it is done: as §3, §4
The subject of series [8] is HepG2 cell lines. The experiment in a line: Transwell migration assay. The class given is cell-based. The following applies: HepG2, 1-16 μM, 16 hours. Here is the method:
as §3, §4

For series [9], the target named is T1, VEGFR2 (kinase insert domain receptor, KDR) (Homo sapiens, UniProt P35968).
T1 construct: purchased Promega V2681
Description: ADP-Glo kinase activity assay. Format: biochemical. The note with it: 10 μM ATP, read-out: concentration inhibiting VEGFR2 activity by 50%. How it is done:
Briefly, CA was first diluted with a kinase reaction buffer solution at a 1:2 dilution ratio. Three nanograms of kinase insert domain receptor (KDR, #V2681, Promega) were added and incubated for 10 mins. Then, 0.1 μg/μL substrate and 10 μM ATP were added and incubated for 1 hour at room temperature. Next, 25 μL of ADP-Glo reagent was added to the mixture and incubated at room temperature for 40 mins. Finally, 50 μL of a kinase detection reagent was added to introduce luciferase and samples were measured.
For orientation: ADP-Glo first removes unused ATP, then detects ADP through luciferase.

The values that follow come from patent publication US9801840B1, “Pharmaceutical composition and use thereof” (priority 2016, dated 2017).

Where only a bound is given, the exact number is not on record here.

T1 sequence (P35968 20-1356): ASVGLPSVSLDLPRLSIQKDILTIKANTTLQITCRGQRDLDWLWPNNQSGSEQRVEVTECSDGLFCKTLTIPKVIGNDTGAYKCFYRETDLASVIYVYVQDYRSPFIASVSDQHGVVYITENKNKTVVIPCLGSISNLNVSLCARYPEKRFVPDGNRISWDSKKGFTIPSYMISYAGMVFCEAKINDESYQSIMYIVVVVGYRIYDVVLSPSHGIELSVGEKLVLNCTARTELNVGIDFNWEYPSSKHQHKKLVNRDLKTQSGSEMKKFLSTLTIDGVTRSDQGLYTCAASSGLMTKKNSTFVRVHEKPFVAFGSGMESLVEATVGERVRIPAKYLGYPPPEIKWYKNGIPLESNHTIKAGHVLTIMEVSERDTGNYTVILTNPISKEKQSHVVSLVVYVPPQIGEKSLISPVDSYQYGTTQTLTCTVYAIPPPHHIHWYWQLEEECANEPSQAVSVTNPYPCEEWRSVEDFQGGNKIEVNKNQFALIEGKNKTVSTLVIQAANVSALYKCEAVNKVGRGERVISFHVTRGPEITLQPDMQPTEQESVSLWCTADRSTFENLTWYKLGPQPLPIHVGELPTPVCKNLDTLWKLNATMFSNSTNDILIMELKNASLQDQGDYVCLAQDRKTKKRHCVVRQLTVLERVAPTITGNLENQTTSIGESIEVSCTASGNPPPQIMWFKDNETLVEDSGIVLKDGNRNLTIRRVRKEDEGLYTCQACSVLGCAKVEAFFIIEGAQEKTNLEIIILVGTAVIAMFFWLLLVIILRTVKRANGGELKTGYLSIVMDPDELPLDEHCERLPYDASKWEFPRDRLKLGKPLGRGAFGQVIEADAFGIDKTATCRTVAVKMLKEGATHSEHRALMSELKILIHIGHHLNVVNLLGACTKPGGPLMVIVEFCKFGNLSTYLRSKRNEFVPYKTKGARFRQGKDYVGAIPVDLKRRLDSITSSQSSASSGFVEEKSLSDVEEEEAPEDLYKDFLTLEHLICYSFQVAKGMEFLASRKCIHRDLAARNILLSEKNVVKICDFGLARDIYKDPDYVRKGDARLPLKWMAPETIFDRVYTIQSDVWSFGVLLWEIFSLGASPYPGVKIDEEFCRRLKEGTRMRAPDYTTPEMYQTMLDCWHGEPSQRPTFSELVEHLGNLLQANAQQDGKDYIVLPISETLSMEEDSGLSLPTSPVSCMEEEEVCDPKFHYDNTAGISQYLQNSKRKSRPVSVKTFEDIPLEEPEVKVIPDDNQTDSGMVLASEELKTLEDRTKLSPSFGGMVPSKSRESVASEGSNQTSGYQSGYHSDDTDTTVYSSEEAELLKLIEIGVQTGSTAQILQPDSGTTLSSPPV

In the case of `CNC(=O)c1cc(Oc2ccc(NC(=O)Nc3ccc(Cl)c(C(F)(F)F)c3)cc2)ccn1` [sorafenib], the “phosphorylation level / activation of FAK kinase in the tumor in the mice” value in the series on FAK was “didn't show any inhibitory effect”.

As for `C[C@H]1[C@H](C)CC[C@]2(C(=O)O)CC[C@]3(C)C(=CC[C@@H]4[C@@]5(C)C[C@@H](O)[C@H](O)C(C)(C)[C@@H]5CC[C@]43C)[C@H]12` [CA, corosolic acid], in the series on Huh7 cell lines [1] (21 days), the “reduction in tumor mass as compared with the control group” value is reported as 85%. Also, in the series on Huh7 cell lines [1] (after 21-day treatment), the “volumes of the tumor” value stood at 63±19 mm^3. Besides, the “phosphorylation of FAK in tumor (immunohistochemistry)” value in the series on p-FAK (Tyr397) is “reduced phosphorylation of both VEGFR2 and FAK significantly”. The “phosphorylation of VEGFR2 in tumor (immunohistochemistry)” value with p-VEGFR2 (Tyr951) was “reduced phosphorylation of both VEGFR2 and FAK significantly”. Moreover, in the series on VEGFR2, the “phosphorylation level of VEGFR2” value is “lower”. For the same compound, the “ratio of F-actin/G-actin (polymer/monomer)” value with Huh7 cell lines [2] was “reduces”. In addition, the IC50 in the series on cdc42 (Homo sapiens, Huh-7, read-out: concentration reducing the activity of cdc42 by 50%) was 2000 nM; in series [9] it was approximately 950 nM. Besides, the “activated cdc42” value in the series on cdc42 was “significantly down-regulated”. Moreover, the “phosphorylation level of FAK (Tyr397)” value in the series with FAK (Tyr397) was “down-regulated”. Also, the cytotoxicity entry with Hep3B cell lines [3] and in the series with HepG2 cell lines [4] was “lower cytotoxicity” throughout. This compound also registered an IC50 at 24 h in “Cytotoxicity assay (MTT)” of 50000 nM. In addition, the “co-localization of phosphorylation of FAK (Tyr397) and F-actin on the filopodium” value with Huh7 cell lines [5] is reported as “decreases”. In the series on Src, the “phosphorylation level of Src” value is listed as “down-regulated”. Besides, the inhibition of migration entry with Hep3B cell lines [6] was “effectively inhibited the migration”; in the series with Huh7 cell lines [7] (Huh7, 1-16 μM, 16 hours) it was “effectively inhibited the migration”; with HepG2 cell lines [8], “effectively inhibited the migration”. The “IC50 cytotoxicity/IC50 migration” value in the series with Huh7 cell lines [7] (HCC cell lines) was not below 20.

On to `C[C@H]1[C@H](C)CC[C@]2(C(=O)O)CC[C@]3(C)C(=CC[C@@H]4[C@@]5(C)CC[C@H](O)C(C)(C)[C@@H]5CC[C@]43C)[C@H]12` [ursolic acid, 3β-hydroxyurs-12-ursen-28-ic acid, reference compound], for which, in the series with Huh7 cell lines [7] (Huh7, CA vs sorafenib vs ursolic acid), the “inhibitory activity to cell migration (FIG. 2D comparison)” value is recorded as “did not show significant inhibitory activity”.
